Results published in ChEMBL document CHEMBL1759842, “Discovery of non-glucoside SGLT2 inhibitors” (Bioorg Med Chem Lett, 2011).

Legend:
[1] = target: T1, Sodium/glucose cotransporter 2 (Homo sapiens, UniProt P31639); assay: Inhibition of human SGLT2 expressed in CHO cells assessed as inhibition of [14C]-alpha-methyl-D-glucopyranoside transport after 60 mins by scintillation counting; format: cell-based
T1 sequence (P31639 whole entry): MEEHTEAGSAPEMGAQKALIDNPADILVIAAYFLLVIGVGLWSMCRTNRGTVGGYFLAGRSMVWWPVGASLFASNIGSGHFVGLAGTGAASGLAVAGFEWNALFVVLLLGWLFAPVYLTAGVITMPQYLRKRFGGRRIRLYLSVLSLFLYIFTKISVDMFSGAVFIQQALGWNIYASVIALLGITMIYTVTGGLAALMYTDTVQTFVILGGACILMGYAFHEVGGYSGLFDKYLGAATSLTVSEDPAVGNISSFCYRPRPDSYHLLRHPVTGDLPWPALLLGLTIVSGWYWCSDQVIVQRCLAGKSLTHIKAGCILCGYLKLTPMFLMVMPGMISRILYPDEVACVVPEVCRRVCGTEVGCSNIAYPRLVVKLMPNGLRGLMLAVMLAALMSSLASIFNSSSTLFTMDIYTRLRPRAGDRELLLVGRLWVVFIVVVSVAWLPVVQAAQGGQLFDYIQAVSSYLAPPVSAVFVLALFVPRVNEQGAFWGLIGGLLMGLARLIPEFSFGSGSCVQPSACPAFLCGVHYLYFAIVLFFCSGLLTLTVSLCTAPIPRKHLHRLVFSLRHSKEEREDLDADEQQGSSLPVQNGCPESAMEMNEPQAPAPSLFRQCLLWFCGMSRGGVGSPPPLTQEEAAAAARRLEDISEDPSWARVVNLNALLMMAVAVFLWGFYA

[2] = target: T2, Sodium/glucose cotransporter 1 (Homo sapiens, UniProt P13866); assay: Inhibition of human SGLT1 expressed in CHO cells assessed as inhibition of [14C]-alpha-methyl-D-glucopyranoside transport after 60 mins by scintillation counting; format: cell-based
T2 sequence (P13866 whole entry): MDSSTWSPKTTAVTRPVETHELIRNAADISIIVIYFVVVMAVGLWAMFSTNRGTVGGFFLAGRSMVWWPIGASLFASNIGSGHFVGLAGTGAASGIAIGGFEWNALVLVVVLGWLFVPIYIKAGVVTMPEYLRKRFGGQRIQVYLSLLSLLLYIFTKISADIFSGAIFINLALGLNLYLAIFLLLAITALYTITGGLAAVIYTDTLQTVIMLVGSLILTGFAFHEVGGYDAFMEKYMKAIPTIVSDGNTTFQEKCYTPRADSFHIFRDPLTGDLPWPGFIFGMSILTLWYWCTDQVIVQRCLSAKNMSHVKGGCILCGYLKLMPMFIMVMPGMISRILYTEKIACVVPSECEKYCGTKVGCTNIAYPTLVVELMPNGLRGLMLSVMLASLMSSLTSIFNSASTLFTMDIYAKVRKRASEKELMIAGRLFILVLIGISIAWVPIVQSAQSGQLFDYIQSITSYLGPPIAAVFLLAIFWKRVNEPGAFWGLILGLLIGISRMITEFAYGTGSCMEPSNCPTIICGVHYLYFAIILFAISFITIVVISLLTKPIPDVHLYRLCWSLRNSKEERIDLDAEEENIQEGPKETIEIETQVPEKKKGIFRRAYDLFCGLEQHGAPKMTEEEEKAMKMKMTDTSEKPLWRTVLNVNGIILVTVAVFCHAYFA

[3] = target: T3, Sodium/myo-inositol cotransporter 2 (Homo sapiens, UniProt Q8WWX8); assay: Inhibition of SGLT6 expressed in CHO cells assessed as inhibition of [14C]-alpha-methyl-D-glucopyranoside transport after 60 mins by scintillation counting; format: cell-based
T3 sequence (Q8WWX8 whole entry): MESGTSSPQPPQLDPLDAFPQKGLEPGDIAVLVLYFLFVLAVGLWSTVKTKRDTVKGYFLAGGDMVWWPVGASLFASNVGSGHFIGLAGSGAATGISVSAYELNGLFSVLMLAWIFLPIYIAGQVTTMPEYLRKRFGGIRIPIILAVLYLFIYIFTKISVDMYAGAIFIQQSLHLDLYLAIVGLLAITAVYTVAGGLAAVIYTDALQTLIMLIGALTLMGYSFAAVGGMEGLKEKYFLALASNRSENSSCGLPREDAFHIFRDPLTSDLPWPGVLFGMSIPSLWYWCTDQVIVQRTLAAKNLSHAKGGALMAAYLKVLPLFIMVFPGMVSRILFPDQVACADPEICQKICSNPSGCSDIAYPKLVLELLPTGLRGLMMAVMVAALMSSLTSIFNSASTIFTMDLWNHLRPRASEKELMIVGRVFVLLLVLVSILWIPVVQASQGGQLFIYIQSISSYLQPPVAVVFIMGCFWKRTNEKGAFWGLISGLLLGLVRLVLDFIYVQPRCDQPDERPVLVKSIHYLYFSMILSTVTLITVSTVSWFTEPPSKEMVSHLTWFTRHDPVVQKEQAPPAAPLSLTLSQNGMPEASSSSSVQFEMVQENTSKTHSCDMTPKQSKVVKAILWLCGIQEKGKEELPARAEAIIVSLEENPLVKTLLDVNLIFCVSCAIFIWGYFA

[4] = Metabolic stability in rat liver microsomes assessed as compound remaining after 30 mins; format: ADME, Microsome; conditions: read-out: Stability
[5] = Metabolic stability in human liver microsomes assessed as compound remaining after 30 mins; format: ADME, Microsome; conditions: read-out: Stability
[6] = target: T1, Sodium/glucose cotransporter 2; assay: Displacement of [3H]dapagliflozin from human SGLT2 expressed in CHO cells after 60 mins by scintillation counting; format: cell-based
[7] = target: T1, Sodium/glucose cotransporter 2; assay: Inhibition of human SGLT2 expressed in CHO cells assessed as inhibition of [14C]-alpha-methyl-D-glucopyranoside transport after 60 mins by scintillation counting in presence of 100% plasma; format: cell-based

Compound | IC50 [1] | IC50 [2] | further results
O=C1COc2ccc(Cl)cc2N1Cc1nnc(CCc2ccc(Cl)cc2)n1C1CC1 | 1.58 µM | 25 µM | 
CCCCn1c(CCc2ccc(Cl)cc2)nnc1CN1C(=O)COc2ccc(Cl)cc21 | 0.03 µM | 11.8 µM | 
CCn1c(CN2C(=O)COc3cc(Cl)ccc32)nnc1SCc1ccc(Cl)cc1 | 0.43 µM | 3.29 µM | 
CCn1c(CN2C(=O)COc3c(Cl)cccc32)nnc1SCc1ccc(Cl)cc1 | 0.15 µM | 7.34 µM | 
CCn1c(CN2C(=O)COc3ccc(Br)cc32)nnc1SCc1ccc(Cl)cc1 | 0.09 µM | 5.32 µM | 
CCOc1ccc(Cc2cc([C@@H]3O[C@H](CO)[C@@H](O)[C@H](O)[C@H]3O)ccc2Cl)cc1 [DAPAGLIFLOZIN] |  |  | IC50 [3]: 0.38 µM
CCCn1c(CCc2ccc(Cl)cc2)nnc1CN1C(=O)COc2ccc(Cl)cc21 | 0.04 µM | 13.6 µM | 
CCn1c(CN2C(=O)COc3ccc(C(F)(F)F)cc32)nnc1SCc1ccc(Cl)cc1 | 0.25 µM | 6.64 µM | 
O=C1CSc2ccc(C(F)(F)F)cc2N1Cc1nnc(SCc2ccc(Cl)cc2)n1C1CC1 | 1.1 µM | 3.75 µM | 
CCn1c(CCc2ccc(Cl)cc2)nnc1CN1C(=O)COc2ccc(C(F)(F)F)cc21 | 0.64 µM | 46 µM | 
CCn1c(CN2C(=O)COc3ccc([N+](=O)[O-])cc32)nnc1SCc1ccc(Cl)cc1 | 2.1 µM | 5.61 µM | 
O=C1COc2ccc(Cl)cc2N1Cc1nnc(CCc2ccc(Cl)cc2)n1CC1CC1 | 0.03 µM | 7.28 µM | 
O=C1COc2ccc(Cl)cc2N1Cc1nnc(CCc2ccc(Cl)cc2)n1CCC(F)(F)F | 0.07 µM | 13.8 µM | 
CCCn1c(CCc2ccc(Cl)cc2)nnc1CN1C(=O)COc2ccc(C(F)(F)F)cc21 | 0.18 µM | 9.88 µM | 
CC(C)Cn1c(CCc2ccc(Cl)cc2)nnc1CN1C(=O)COc2ccc(Cl)cc21 | 0.16 µM | 6.9 µM | 
CCn1c(CN2C(=O)CSc3ccc(C(F)(F)F)cc32)nnc1SCc1ccc(Cl)cc1 | 0.37 µM | 4.75 µM | 
O=C1CSc2ccc(C(F)(F)F)cc2N1Cc1nnc(SCc2ccc(Cl)cc2)n1-c1ccccc1 | 2.11 µM | 3.47 µM | 
O=C1COc2c(Cl)cc(Cl)cc2N1Cc1nnc(CCc2ccc(Cl)cc2)n1CCC(F)(F)F |  |  | remaining at 0.5 h [4]: 4%; remaining at 0.5 h [5]: 4%; IC50 [3]: 9.2 µM
CCn1c(CN2C(=O)COc3cc(Br)ccc32)nnc1SCc1ccc(Cl)cc1 | 0.52 µM | 2.53 µM | 
CC(C)n1c(CN2C(=O)CSc3ccc(C(F)(F)F)cc32)nnc1SCc1ccc(Cl)cc1 | 1.2 µM | 2 µM | 
CCn1c(CN2C(=O)COc3ccc(Cl)cc32)nnc1SCc1ccc(Cl)cc1 | 0.15 µM | 7.34 µM | 
CCCn1c(CCc2ccc(Cl)cc2)nnc1CN1C(=O)COc2c(Cl)cc(Cl)cc21 | 0.009 µM | 9.14 µM | IC50 [6]: 0.016 µM; remaining at 0.5 h [4]: 4%; remaining at 0.5 h [5]: 4%; IC50 [3]: 14.4 µM; IC50 [7]: 0.04 µM
CCn1c(CN2C(=O)COc3ccc(C)cc32)nnc1SCc1ccc(Cl)cc1 | 0.08 µM | 7.13 µM | 
